Species on record: Rattus norvegicus
Experiment: DrugMatrix - Regimen: Daily Repeat
Assay type: toxicity, organism-based, Sprague-Dawley
Design: regimen Daily Repeat, gender Male, age 6-8 weeks
Conditions: in vivo, po, route oral GAVAGE, […]; for ABSOLUTE BASOPHIL / ABSOLUTE EOSINOPHIL / ABSOLUTE LYMPHOCYTE / ABSOLUTE MONOCYTE / ABSOLUTE SEGMENTED NEUTROPHIL / BASOPHIL / EOSINOPHIL / ERYTHROCYTE COUNT / HEMATOCRIT / HEMOGLOBIN / LEUKOCYTE COUNT / LYMPHOCYTE / MEAN CORPUSCULAR HEMOGLOBIN / MEAN CORPUSCULAR HEMOGLOBIN CONCENTRATION / MEAN CORPUSCULAR VOLUME / MONOCYTE / NEUTROPHIL / NUCLEATED RED BLOOD CELLS / PLATELET COUNT: tissue Blood; for ALANINE AMINOTRANSFERASE / ALBUMIN / ALKALINE PHOSPHATASE / ASPARTATE AMINOTRANSFERASE / BLOOD UREA NITROGEN / CARBON DIOXIDE / CHLORIDE / CHOLESTEROL / CREATINE PHOSPHOKINASE / CREATININE / GLUCOSE / LACTATE DEHYDROGENASE / LIPASE / PHOSPHORUS / POTASSIUM / SODIUM / TOTAL BILIRUBIN / TOTAL PROTEIN / URIC ACID: tissue Plasma
[1] = 0 mg/kg, 72 h, dose level Control, time 3 day
[2] = 0 mg/kg, 120 h, dose level Control, time 5 day
[3] = 0 mg/kg, dose level Control, time 28 day
[4] = 20 mg/kg, 72 h, dose level Low, time 3 day

CCCCCCCCCc1ccc(O)cc1 [4-NONYLPHENOL]
ABSOLUTE BASOPHIL [1]: 0 CELLS/uL
ABSOLUTE EOSINOPHIL [1]: 0 CELLS/uL
ABSOLUTE LYMPHOCYTE [1]: 11091.17 CELLS/uL
ABSOLUTE MONOCYTE [1]: 172.17 CELLS/uL
ABSOLUTE SEGMENTED NEUTROPHIL [1]: 1186.67 CELLS/uL
BASOPHIL [1]: 0%
EOSINOPHIL [1]: 0%
ERYTHROCYTE COUNT [1]: 5.87 x10E6/uL
HEMATOCRIT [1]: 36.87%
HEMOGLOBIN [1]: 14.03 G/DL
LEUKOCYTE COUNT [1]: 12.45 x10E3/uL
LYMPHOCYTE [1]: 88.67%
MEAN CORPUSCULAR HEMOGLOBIN [1]: 23.93 pg
MEAN CORPUSCULAR HEMOGLOBIN CONCENTRATION [1]: 38.1 G/DL
MEAN CORPUSCULAR VOLUME [1]: 62.73 fL
MONOCYTE [1]: 1.5%
NEUTROPHIL [1]: 9.83%
NUCLEATED RED BLOOD CELLS [1]: 0 /100WBC
PLATELET COUNT [1]: 1150.33 x10E3/uL
ALANINE AMINOTRANSFERASE [1]: 67.17 u/L
ALBUMIN [1]: 4.03 G/DL
ALKALINE PHOSPHATASE [1]: 462.5 u/L
ASPARTATE AMINOTRANSFERASE [1]: 88 u/L
BLOOD UREA NITROGEN [1]: 13.17 mg/dL
CARBON DIOXIDE [1]: 29.33 mmol/L
CHLORIDE [1]: 101 MEQ/L
CHOLESTEROL [1]: 69.17 mg/dL
CREATINE PHOSPHOKINASE [1]: 292.5 u/L
CREATININE [1]: 0.17 mg/dL
GLUCOSE [1]: 167.5 mg/dL
LACTATE DEHYDROGENASE [1]: 198.5 u/L
LIPASE [1]: 10.67 u/L
PHOSPHORUS [1]: 11.73 mg/dL
POTASSIUM [1]: 5.91 MEQ/L
SODIUM [1]: 143.3 MEQ/L
TOTAL BILIRUBIN [1]: 0.18 mg/dL
TOTAL PROTEIN [1]: 5.7 G/DL
URIC ACID [1]: 1.3 mg/dL
ABSOLUTE BASOPHIL [2]: 0 CELLS/uL
ABSOLUTE EOSINOPHIL [2]: 64.33 CELLS/uL
ABSOLUTE LYMPHOCYTE [2]: 12494.67 CELLS/uL
ABSOLUTE MONOCYTE [2]: 117 CELLS/uL
ABSOLUTE SEGMENTED NEUTROPHIL [2]: 1340.67 CELLS/uL
NUCLEATED RED BLOOD CELLS [2]: 0 /100WBC
CARBON DIOXIDE [2]: 29.17 mmol/L
LACTATE DEHYDROGENASE [2]: 229.17 u/L
LIPASE [2]: 10.83 u/L
URIC ACID [2]: 1.55 mg/dL
BASOPHIL [3]: 0.42%
EOSINOPHIL [3]: 0.58%
ERYTHROCYTE COUNT [3]: 8.06 x10E6/uL
HEMATOCRIT [3]: 48.44%
HEMOGLOBIN [3]: 16.34 G/DL
LEUKOCYTE COUNT [3]: 13.04 x10E3/uL
LYMPHOCYTE [3]: 85.12%
MEAN CORPUSCULAR HEMOGLOBIN [3]: 20.26 pg
MEAN CORPUSCULAR HEMOGLOBIN CONCENTRATION [3]: 33.74 G/DL
MEAN CORPUSCULAR VOLUME [3]: 60.1 fL
MONOCYTE [3]: 1.44%
NEUTROPHIL [3]: 11.28%
PLATELET COUNT [3]: 1226 x10E3/uL
ALANINE AMINOTRANSFERASE [3]: 28.6 u/L
ALBUMIN [3]: 3.94 G/DL
ALKALINE PHOSPHATASE [3]: 254.6 u/L
ASPARTATE AMINOTRANSFERASE [3]: 67.8 u/L
BLOOD UREA NITROGEN [3]: 10.4 mg/dL
CHLORIDE [3]: 104.6 MEQ/L
CHOLESTEROL [3]: 57.6 mg/dL
CREATINE PHOSPHOKINASE [3]: 224.8 u/L
CREATININE [3]: 0.4 mg/dL
GLUCOSE [3]: 140.6 mg/dL
PHOSPHORUS [3]: 10.66 mg/dL
POTASSIUM [3]: 6.58 MEQ/L
SODIUM [3]: 148.6 MEQ/L
TOTAL BILIRUBIN [3]: 0.24 mg/dL
TOTAL PROTEIN [3]: 6.64 G/DL
ABSOLUTE BASOPHIL [4]: 0 CELLS/uL
ABSOLUTE EOSINOPHIL [4]: 45.67 CELLS/uL
ABSOLUTE LYMPHOCYTE [4]: 11853.67 CELLS/uL
ABSOLUTE MONOCYTE [4]: 45.67 CELLS/uL
ABSOLUTE SEGMENTED NEUTROPHIL [4]: 988.33 CELLS/uL
BASOPHIL [4]: 0%
EOSINOPHIL [4]: 0.33%
ERYTHROCYTE COUNT [4]: 5.99 x10E6/uL
HEMATOCRIT [4]: 37.03%
HEMOGLOBIN [4]: 14.3 G/DL
LEUKOCYTE COUNT [4]: 12.93 x10E3/uL
LYMPHOCYTE [4]: 91.67%
MEAN CORPUSCULAR HEMOGLOBIN [4]: 23.9 pg
MEAN CORPUSCULAR HEMOGLOBIN CONCENTRATION [4]: 38.6 G/DL
MEAN CORPUSCULAR VOLUME [4]: 61.9 fL
MONOCYTE [4]: 0.33%
NEUTROPHIL [4]: 7.67%
NUCLEATED RED BLOOD CELLS [4]: 0 /100WBC
PLATELET COUNT [4]: 1126 x10E3/uL
ALANINE AMINOTRANSFERASE [4]: 75.33 u/L
ALBUMIN [4]: 3.8 G/DL
ALKALINE PHOSPHATASE [4]: 451.33 u/L
ASPARTATE AMINOTRANSFERASE [4]: 100 u/L
BLOOD UREA NITROGEN [4]: 13 mg/dL
CARBON DIOXIDE [4]: 24.67 mmol/L
CHLORIDE [4]: 102.67 MEQ/L
CHOLESTEROL [4]: 62.67 mg/dL
CREATINE PHOSPHOKINASE [4]: 371 u/L
CREATININE [4]: 0.19 mg/dL
GLUCOSE [4]: 168.67 mg/dL
LACTATE DEHYDROGENASE [4]: 255.33 u/L
LIPASE [4]: 9.67 u/L
PHOSPHORUS [4]: 11.97 mg/dL
POTASSIUM [4]: 5.3 MEQ/L
SODIUM [4]: 143.8 MEQ/L
TOTAL BILIRUBIN [4]: 0.2 mg/dL
TOTAL PROTEIN [4]: 5.33 G/DL
URIC ACID [4]: 1.77 mg/dL

Source: ChEMBL document CHEMBL3885881, “DrugMatrix”
